Tested on: human erythrocytes
Assay: Hemolytic assay
Type: cell-based
Conditions: 1 h 37° C., relative to 0.1% Triton X-100, peptide concentration 600 μg/mL
Protocol: To determine whether the peptides and peptide derivatives according to the invention were toxic to mammalian cells, several peptides and peptidomimetics from Example 1 above, a positive control, and a negative control were examined for hemolytic activity. The hemolytic activity was assayed with human erythrocytes. A human erythrocyte concentrate was provided in sodium chloride […]-glucose-mannitol buffer from the Leipzig University Hospital (Leipzig, Germany). The erythrocytes were centrifuged at 1000 G and washed three times with 10 volumes of cold phosphate-buffered saline (PBS, pH 7.4). The erythrocytes were diluted to a final concentration of 1% in PBS. One hundred microliters of this human erythrocyte suspension in PBS was added to each well of a V-shaped 96-well polypropylene microtiter plate (Greiner Bio-One GmbH). […] The microtiter plate was incubated at 37° C. for 1 h and subsequently centrifuged for 10 min at 1000 G. One hundred microliters of the supernatant was transferred to a 96-well flat-bottomed polystyrene microtiter plate (Greiner Bio-One GmbH) and the absorption at 405 nm recorded in a micro plate spectrophotometer (Tecan) to evaluate the heme release. […] The hemolysis percentage was calculated by the following equation[44]: ([…])×100% with E=Extinction at 405 nm All hemolytic assays were performed in duplicates. […]

Q: “(p-tert-Octylphenoxy)polyethoxyethanol [Triton X-100 ®]” was tested. Which Haemolysis rate did it give?
A: 100%

— patent US20150315241A1, “Antibiotic Peptides” (priority 2007, published 2015)
